Results published in PMC8315116 (Biochemistry, 2021).
Where “and” joins values, the source holds several entries; their conditions need not be identical. Identical values can stand only once. Like-named read-outs stand apart in the source and are kept apart here. One block for each compound: values may come before it.

Legend:
human MAT2A [1] = biological target: T1, human MAT2A (Homo sapiens, UniProt P31153); assay: ATP analogues as alternative substrates of MAT2A; type: biochemical; settings: Figure 5C
human MAT2A [2] = biological target: T1, human MAT2A; assay: Product inhibition of MAT2A by AdoMet; type: biochemical; settings: non-competitive
human MAT2A [3] = biological target: T1, human MAT2A; assay: Triphosphate hydrolysis by MAT2A; type: biochemical; settings: for Km: read-out: Km of triphosphate hydrolysis
human MAT2A [4] = biological target: T1, human MAT2A; assay: HPLC assay of ATPase activity of MAT2A; type: biochemical; settings: 80 μM AdoMet or 10 μM ammonium vanadate
human MAT2A [5] = biological target: T1, human MAT2A; assay: Thermal melt of MAT2A with Sypro Orange and ligands; settings: 10 mM MgCl2
human MAT2A [6] = biological target: T1, human MAT2A; assay: Inhibition of MAT2A by PNP or PPNP; settings: non-competitive
human MAT2A [7] = biological target: T1, human MAT2A; settings: varied substrate; fits to data of Fig. 2
human MAT2A [8] = biological target: T1, human MAT2A; assay: Inhibition of MAT2A by ATP and triphosphate analogues; type: biochemical
[9] = 1 mM methionine and 200 μM ATP, NO = no significant inhibition observed

T1 sequence (P31153 whole entry): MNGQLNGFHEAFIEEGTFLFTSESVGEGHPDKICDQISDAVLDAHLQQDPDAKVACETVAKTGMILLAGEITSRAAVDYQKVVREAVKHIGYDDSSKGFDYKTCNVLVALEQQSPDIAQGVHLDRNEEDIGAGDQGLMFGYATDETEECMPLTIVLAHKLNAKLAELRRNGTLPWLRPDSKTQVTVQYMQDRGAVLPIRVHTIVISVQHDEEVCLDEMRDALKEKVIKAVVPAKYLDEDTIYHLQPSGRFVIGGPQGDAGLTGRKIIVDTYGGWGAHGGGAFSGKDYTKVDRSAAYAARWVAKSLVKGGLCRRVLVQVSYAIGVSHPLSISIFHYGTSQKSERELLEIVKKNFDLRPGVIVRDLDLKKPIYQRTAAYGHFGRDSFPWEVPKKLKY

production of orthophosphate from methionine and ATP analogue (human MAT2A [1]): phosphate formation
Compound: Nc1ncnc2c1ncn2[C@@H]1O[C@H](COP(=O)(O)CP(=O)(O)OP(=O)(O)O)[C@@H](O)[C@H]1O [AMPCPP]

rate of triphosphate hydrolysis (human MAT2A [3]; AdoMet at 150 μM): 0.07 ± 0.01 s⁻¹
kcat of triphosphate hydrolysis (human MAT2A [3]; AdoMet at 1 mM): 0.033 ± 0.003 s⁻¹
Km (human MAT2A [3]; AdoMet at 150 μM): 6 ± 2 µM
Km (human MAT2A [3]; without AdoMet present): 4 ± 2 µM
rate of triphosphate hydrolysis (human MAT2A [3]; without AdoMet present): 0.020 ± 0.003 s⁻¹
Ki (human MAT2A [8]; [9]): 3.45 µM and 3.4 µM
thermal stabilization of MAT2A, in words (human MAT2A [5]): large shifts in the Tm
Compound: O=P(O)(O)OP(=O)(O)OP(=O)(O)O [Triphosphate]

thermal stabilization of MAT2A, in words (human MAT2A [5]): did little to increase MAT2A stability
Compound: phosphate

Further lines, the compound ahead of its results:

Compound: C[S+](CC[C@H](N)C(=O)[O-])C[C@H]1O[C@@H](n2cnc3c(N)ncnc32)[C@H](O)[C@@H]1O (stereo partly drawn) [AdoMet, S-Adenosyl-L-methionine]
Ki (human MAT2A [2]; with respect to ATP): 136 ± 7 µM
Ki (human MAT2A [2]; with respect to methionine): 81 ± 10 µM
activation of triphosphate hydrolysis (human MAT2A [3]; AdoMet at 150 μM versus no AdoMet): 3.5 fold
effect on the ATPase reaction of MAT2A (human MAT2A [4]): inhibited
thermal stabilization of MAT2A, in words (human MAT2A [5]): did little to increase MAT2A stability

Compound: O=P(O)(O)NP(=O)(O)O [Imidodiphosphate]
Ki (human MAT2A [6]; Ki, toward ATP): 14 ± 1 µM
Ki (human MAT2A [6]; Ki, toward methionine): 17 ± 2 µM

Compound: CSCC[C@H](N)C(=O)O [Methionine]
kcat (human MAT2A [7]): 0.27 ± 0.01 s⁻¹
shift of thermal melt temperature (Tm) compared to MAT2A alone (human MAT2A [5]): 1-3 °C

Compound: O=P(O)(O)NP(=O)(O)NP(=O)(O)O [PNPNP, (α–β, β–γ)-diimido triphosphate]
Ki (human MAT2A [8]; [9]): 0.12 ± 0.03 µM
increased affinity compared to PPNP (human MAT2A [8]; PNPNP versus PPNP): ~10 fold
Ki (human MAT2A [8]; read-out: Ki (inhibitor)): 0.115 µM
shift of thermal melt temperature (Tm) compared to MAT2A alone (human MAT2A [5]): > 50 °C

Compound: O=P(O)(O)NP(=O)(O)OP(=O)(O)O [PPNP, Imidotriphosphate]
Ki (human MAT2A [6]; toward ATP): 0.86 ± 0.06 µM
Ki (human MAT2A [6]; toward methionine): 0.76 ± 0.07 µM

Compound: O=P(O)(O)OP(=O)(O)O [pyrophosphate]
thermal stabilization of MAT2A, in words (human MAT2A [5]): large shifts in the Tm
